According to patent US4308210A, “Nanaomycin B and therapeutic compositions containing same” (The Kitasato Institute, priority 1976, dated 1981):
Converted amounts (≈) assume the structure as drawn. Read-outs that look alike come from different tables or passages of the source.

Experiments:
[1] = system: Bacillus subtillis PCI 219; assay: Antimicrobial spectrum, MIC, nutrient agar; format: cell-based; settings: PCI219, 48 h, nutrient agar (pH 7.0, 2 days, 37° C.)
[2] = system: Xanthomonas oryzae N-5824; assay: microbe, parasite or virus in culture; format: cell-based; settings: N5824, 48 h, pH 7
Pseudomonas aeruginosa = assay: Antimicrobial spectrum, MIC, nutrient agar; format: cell-based; settings: 48 h, nutrient agar (pH 7.0, 2 days, 37° C.)
Candida albicans = assay: Antimicrobial spectrum, MIC, potato agar; format: cell-based; settings: 96 h, potato agar (pH 6.4, 4 days, 27° C.)
[3] = system: Aspergillus niger ATCC 6275; assay: Antimicrobial spectrum, MIC, potato agar; format: cell-based; settings: ATCC6275, 96 h, potato agar (pH 6.4, 4 days, 27° C.)
Protocol: (§1) P potato agar (pH 6.4, 4 days, 27° C.)
(§2) MIC Minimal inhibitory concentration

Microsporum gypseum 704 = assay: Antimicrobial spectrum, MIC, potato agar; format: cell-based; settings: Nannizzia gypsea, 704, 96 h; potato agar (pH 6.4, 4 days, 27° C.)
Protocol: as §1, §2

Saccharomyces sake = assay: Antimicrobial spectrum, MIC, potato agar; format: cell-based; settings: 96 h, potato agar (pH 6.4, 4 days, 27° C.)
Protocol: as §1, §2

[4] = system: Aspergillus fumigatus IAM 2612; assay: Antimicrobial spectrum, MIC, potato agar; format: cell-based; settings: IAM2612, 96 h, potato agar (pH 6.4, 4 days, 27° C.)
Piricularia oryzae = assay: microbe, parasite or virus in culture; format: cell-based; settings: 96 h, pH 6.4
Trichophyton asteroides = assay: Antimicrobial spectrum, MIC, potato agar; format: cell-based; settings: 96 h, potato agar (pH 6.4, 4 days, 27° C.)
[5] = system: Trichophyton mentagrophytes; assay: Antimicrobial spectrum, MIC, potato agar; format: cell-based; settings: 96 h, potato agar (pH 6.4, 4 days, 27° C.)
Trichophyton pedis 804 = assay: Antimicrobial spectrum, MIC, potato agar; format: cell-based; settings: Trichophyton pedis, 804, 96 h; potato agar (pH 6.4, 4 days, 27° C.)
Trichophyton purpureum = assay: Antimicrobial spectrum, MIC, potato agar; format: cell-based; settings: 96 h, potato agar (pH 6.4, 4 days, 27° C.)
Trichophyton roseum = assay: Antimicrobial spectrum, MIC, potato agar; format: cell-based; settings: 96 h, potato agar (pH 6.4, 4 days, 27° C.)
Trichophyton schoenleini = assay: Antimicrobial spectrum, MIC, potato agar; format: cell-based; settings: 96 h, potato agar (pH 6.4, 4 days, 27° C.)
Trichophyton violaceum = assay: Antimicrobial spectrum, MIC, potato agar; format: cell-based; settings: 96 h, potato agar (pH 6.4, 4 days, 27° C.)
[6] = system: Acholeplasma laidlawii (A) PG8; assay: Antimicrobial spectrum, MIC, PPLO agar; format: cell-based
Protocol: (§3) H Hokken PPLO agar (pH 7.8, 8 days, 37° C.)
(§4) E Eiken PPLO agar (pH 7.8, 8 days, 37° C.)
as §2

Mycoplasma pneumonia = assay: Antimicrobial spectrum, MIC, PPLO agar; format: cell-based; settings: 192 h, Eiken PPLO agar (pH 7.8, 8 days, 37° C.)
Protocol: as §4, §2

Mycoplasma gallisepticum = assay: Growth inhibition of Mycoplasma gallisepticum (text summary of Table 1); format: cell-based; settings: Mycoplasmoides gallisepticum, 192 h, read-out: growth inhibited at a concentration
Protocol: as §3, §4, §2

[7] = system: Tricophyton metagrophytes; assay: Treatment of dermatomycosis at the back of guinea pigs; format: in vivo; settings: 0.01-1% solution in propylene glycol-ethanol (3:1, v/v), once daily for 8 days
Trichophyton verrucosum = assay: Treatment of dermatomycosis of cattle caused by mass infection; format: in vivo; design: key: +++: complete removal of scales and recovered; ++: a little scales remained; +: removal of a part of scales; -: no removal of scale and no recovery
Protocol: When dermatomycosis of cattle caused by mass infection of Trichophyton verrucosum is treated with nanaomycin B, nanaomycin B is dissolved or suspended in a suitable carrier, for example, olive oil, and is coated on the affected part directly with or without removal of the scales. […] The results obtained by coating nanaomycin B once and by twice coatings (the second coating is carried out a week after the first coating) are shown in tables 2 and 3, respectively.

[8] = system: fungi (Test Organisms of Table 4); assay: Antifungal activity, comparison in words (Table 4); format: cell-based
Acute toxicity, LD50 = settings: in vivo, ip; intra-penetrial injection into mouse
Text: Accordingly, it can be said that nanaomycin B represents a new antibiotic which may be used as a medicament for human beings and animals.

Solubility = format: physicochemical
[9] = Activity of nanaomycin B itself; settings: in words
[10] = Conversion of nanaomycin B into nanaomycin A in culture medium or living bodies
[11] = coating once, I direct coating on affected part, 0.1 mg/ml
[12] = coating once, I direct coating on affected part, 1 mg/ml
[13] = coating once, I direct coating on affected part, 10 mg/ml
[14] = coating once, II coating after removing the scales, 0.1 mg/ml
[15] = coating once, II coating after removing the scales, 1 mg/ml
[16] = coating once, II coating after removing the scales, 10 mg/ml
[17] = twice coatings (second a week after the first), I direct coating on affected part, 0.1 mg/ml
[18] = twice coatings (second a week after the first), I direct coating on affected part, 1 mg/ml
[19] = twice coatings (second a week after the first), I direct coating on affected part, 10 mg/ml
[20] = twice coatings (second a week after the first), II coating after removing the scales, 0.1 mg/ml
[21] = twice coatings (second a week after the first), II coating after removing the scales, 1 mg/ml
[22] = twice coatings (second a week after the first), II coating after removing the scales, 10 mg/ml

CC1OC(CC(=O)O)CC2C(=O)c3cccc(O)c3C(=O)C12O (centres unmarked) [Nanaomycin B]
MIC [1]: 7.8 µg/mL (≈ 24.4 µM) | MIC [2]: 125 µg/mL (≈ 390 µM) | MIC (Pseudomonas aeruginosa): > 500 µg/mL | MIC (Candida albicans): 31.2 µg/mL (≈ 97.4 µM) | MIC [3]: 62.5 µg/mL (≈ 195 µM) | MIC (Microsporum gypseum 704): 12.5 µg/mL (≈ 39 µM) | MIC (Saccharomyces sake): 62.5 µg/mL (≈ 195 µM) | MIC [4]: > 100 µg/mL | MIC (Piricularia oryzae): 15.6 µg/mL (≈ 48.7 µM) | MIC (Trichophyton asteroides): 12.5 µg/mL (≈ 39 µM) | MIC [5]: 25 µg/mL (≈ 78.1 µM) | MIC (Trichophyton pedis 804): 3.1 µg/mL (≈ 9.68 µM) | MIC (Trichophyton purpureum): 25 µg/mL (≈ 78.1 µM) | MIC (Trichophyton roseum): 12.5 µg/mL (≈ 39 µM) | MIC (Trichophyton schoenleini): 3.1 µg/mL (≈ 9.68 µM) | MIC (Trichophyton violaceum): 3.1 µg/mL (≈ 9.68 µM) | MIC ([6]; Acholeplasma laidlawii, 192 h, Hokken PPLO agar (pH 7.8, 8 days, 37° C.), read-out: MIC): > 25 µg/mL | MIC ([6]; Eiken PPLO agar (pH 7.8, 8 days, 37° C.)): > 25 µg/mL | MIC (Mycoplasma pneumonia): 0.05 µg/mL (≈ 0.156 µM) | MIC (Mycoplasma gallisepticum): ≤ 0.1 µg/mL | therapeutic effect on erythema and scales [7]: excellent therapeutic effect | Result after 1 week (Trichophyton verrucosum; [11]): ++ | Result after 2 weeks (Trichophyton verrucosum; [11]): ++ | Result after 3 weeks (Trichophyton verrucosum; [11]): +++ | Result after 4 weeks (Trichophyton verrucosum; [11]): +++ | Result after 1 week (Trichophyton verrucosum; [12]): +++ | Result after 2 weeks (Trichophyton verrucosum; [12]): +++ | Result after 3 weeks (Trichophyton verrucosum; [12]): +++ | Result after 4 weeks (Trichophyton verrucosum; [12]): +++ | Result after 1 week (Trichophyton verrucosum; [13]): +++ | Result after 2 weeks (Trichophyton verrucosum; [13]): +++ | Result after 3 weeks (Trichophyton verrucosum; [13]): +++ | Result after 4 weeks (Trichophyton verrucosum; [13]): +++ | Result after 1 week (Trichophyton verrucosum; [14]): +++ | Result after 2 weeks (Trichophyton verrucosum; [14]): +++ | Result after 3 weeks (Trichophyton verrucosum; [14]): +++ | Result after 4 weeks (Trichophyton verrucosum; [14]): +++ | Result after 1 week (Trichophyton verrucosum; [15]): +++ | Result after 2 weeks (Trichophyton verrucosum; [15]): +++ | Result after 3 weeks (Trichophyton verrucosum; [15]): +++ | Result after 4 weeks (Trichophyton verrucosum; [15]): +++ | Result after 1 week (Trichophyton verrucosum; [16]): +++ | Result after 2 weeks (Trichophyton verrucosum; [16]): +++ | Result after 3 weeks (Trichophyton verrucosum; [16]): +++ | Result after 4 weeks (Trichophyton verrucosum; [16]): +++ | Result after 1 week (Trichophyton verrucosum; [17]): ++ | Result after 2 weeks (Trichophyton verrucosum; [17]): +++ | Result after 3 weeks (Trichophyton verrucosum; [17]): +++ | Result after 4 weeks (Trichophyton verrucosum; [17]): +++ | Result after 1 week (Trichophyton verrucosum; [18]): ++ | Result after 2 weeks (Trichophyton verrucosum; [18]): ++ | Result after 3 weeks (Trichophyton verrucosum; [18]): +++ | Result after 4 weeks (Trichophyton verrucosum; [18]): +++ | Result after 1 week (Trichophyton verrucosum; [19]): +++ | Result after 2 weeks (Trichophyton verrucosum; [19]): +++ | Result after 3 weeks (Trichophyton verrucosum; [19]): +++ | Result after 4 weeks (Trichophyton verrucosum; [19]): +++ | Result after 1 week (Trichophyton verrucosum; [20]): +++ | Result after 2 weeks (Trichophyton verrucosum; [20]): +++ | Result after 3 weeks (Trichophyton verrucosum; [20]): +++ | Result after 4 weeks (Trichophyton verrucosum; [20]): +++ | Result after 1 week (Trichophyton verrucosum; [21]): +++ | Result after 2 weeks (Trichophyton verrucosum; [21]): +++ | Result after 3 weeks (Trichophyton verrucosum; [21]): +++ | Result after 4 weeks (Trichophyton verrucosum; [21]): +++ | Result after 1 week (Trichophyton verrucosum; [22]): +++ | Result after 2 weeks (Trichophyton verrucosum; [22]): +++ | Result after 3 weeks (Trichophyton verrucosum; [22]): +++ | Result after 4 weeks (Trichophyton verrucosum; [22]): +++ | antifungal activity compared with deoxyfrenolicin [8]: slightly inferior | antifungal activity compared with ethylkalafunginate (ethylkalamycinate) [8]: superior | antifungal activity when the pH of the medium is higher than 6.4 ([8]; pH of medium higher than 6.4): stronger antifungal activity | LD50 (Acute toxicity, LD50): 169 mg/kg | Solubility in methanol, ethanol, ethylacetate, chloroform, acetone and ether (Solubility): Easily soluble | Solubility in n-hexane, petroleum ether and water (Solubility): Insoluble | activity of nanaomycin B itself [9]: no or little activity | conversion into nanaomycin A in a culture medium or in living bodies [10]: converted into nanaomycin A
